# Data reported in ChEMBL document CHEMBL1136036, “Targeting thrombin and factor VIIa: design, synthesis, and inhibitory activity of functionally relevant indolizidinones” (Bioorg Med Chem Lett, 2002).
# Columns and labels:
# Coagulation factor VII = biological target: T1, Coagulation factor VII (Homo sapiens, UniProt P08709); experiment: Compound was tested for inhibitory activity against Coagulation factor VIIa
# T1 sequence (P08709 whole entry): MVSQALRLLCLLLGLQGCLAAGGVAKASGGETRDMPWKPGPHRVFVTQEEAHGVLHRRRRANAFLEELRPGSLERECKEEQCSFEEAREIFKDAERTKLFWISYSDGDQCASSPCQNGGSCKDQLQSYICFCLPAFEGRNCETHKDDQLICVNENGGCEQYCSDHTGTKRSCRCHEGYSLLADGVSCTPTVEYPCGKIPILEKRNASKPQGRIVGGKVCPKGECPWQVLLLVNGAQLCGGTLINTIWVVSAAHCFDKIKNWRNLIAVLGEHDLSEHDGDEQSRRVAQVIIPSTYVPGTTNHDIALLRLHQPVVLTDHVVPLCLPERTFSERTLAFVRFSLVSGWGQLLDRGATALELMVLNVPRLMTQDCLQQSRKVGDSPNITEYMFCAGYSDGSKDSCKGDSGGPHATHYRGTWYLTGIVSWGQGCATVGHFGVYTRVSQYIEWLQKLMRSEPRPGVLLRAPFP
# Prothrombin = Prothrombin (Homo sapiens, UniProt P00734); experiment: Compound was tested for inhibitory activity against Thrombin
# Coagulation factor XI [1] = biological target: T2, Coagulation factor XI (Homo sapiens, UniProt P03951); experiment: Compound was tested for inhibitory activity against Coagulation factor XIa at 8 uM
# Coagulation factor XI [2] = biological target: T2, Coagulation factor XI; experiment: Compound was tested for inhibitory activity against Coagulation factor XIa
# Plasminogen = Plasminogen (Homo sapiens, UniProt P00747); experiment: Compound was tested for inhibitory activity against Plasmin
# Chain of Plasminogen (P00747 97-580 limits assumed): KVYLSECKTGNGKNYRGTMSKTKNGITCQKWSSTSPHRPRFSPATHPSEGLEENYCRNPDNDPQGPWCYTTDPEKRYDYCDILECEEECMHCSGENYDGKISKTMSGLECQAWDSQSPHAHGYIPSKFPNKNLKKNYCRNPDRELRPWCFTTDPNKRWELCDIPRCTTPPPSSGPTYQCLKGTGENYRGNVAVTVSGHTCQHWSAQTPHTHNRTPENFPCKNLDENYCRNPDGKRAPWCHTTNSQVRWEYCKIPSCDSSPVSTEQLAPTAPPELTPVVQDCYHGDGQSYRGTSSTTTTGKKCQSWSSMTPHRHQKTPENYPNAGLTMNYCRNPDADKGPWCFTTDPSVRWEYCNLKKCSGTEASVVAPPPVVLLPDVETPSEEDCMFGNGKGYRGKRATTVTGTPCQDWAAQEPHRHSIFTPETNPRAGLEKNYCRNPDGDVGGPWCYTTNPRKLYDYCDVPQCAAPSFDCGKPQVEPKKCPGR
# Chain of Plasminogen (P00747 581-810 limits assumed): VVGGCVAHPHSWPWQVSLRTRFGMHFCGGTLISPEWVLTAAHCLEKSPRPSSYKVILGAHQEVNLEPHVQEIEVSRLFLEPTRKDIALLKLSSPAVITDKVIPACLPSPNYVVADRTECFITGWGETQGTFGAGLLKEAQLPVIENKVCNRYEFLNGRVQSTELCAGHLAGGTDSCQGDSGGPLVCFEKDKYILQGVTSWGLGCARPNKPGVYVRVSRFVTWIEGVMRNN
# T2 sequence (P03951 19-387 limits assumed): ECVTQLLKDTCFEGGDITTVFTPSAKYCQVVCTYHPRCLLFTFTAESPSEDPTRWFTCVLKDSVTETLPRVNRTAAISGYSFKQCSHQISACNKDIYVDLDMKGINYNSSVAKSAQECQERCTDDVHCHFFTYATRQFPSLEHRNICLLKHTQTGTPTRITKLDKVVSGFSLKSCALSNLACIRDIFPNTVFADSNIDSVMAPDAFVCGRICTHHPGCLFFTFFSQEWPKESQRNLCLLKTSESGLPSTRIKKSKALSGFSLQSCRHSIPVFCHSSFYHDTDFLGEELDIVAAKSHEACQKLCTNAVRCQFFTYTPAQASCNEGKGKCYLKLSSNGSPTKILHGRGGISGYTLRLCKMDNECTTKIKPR
# T2 sequence (P03951 388-625 limits assumed): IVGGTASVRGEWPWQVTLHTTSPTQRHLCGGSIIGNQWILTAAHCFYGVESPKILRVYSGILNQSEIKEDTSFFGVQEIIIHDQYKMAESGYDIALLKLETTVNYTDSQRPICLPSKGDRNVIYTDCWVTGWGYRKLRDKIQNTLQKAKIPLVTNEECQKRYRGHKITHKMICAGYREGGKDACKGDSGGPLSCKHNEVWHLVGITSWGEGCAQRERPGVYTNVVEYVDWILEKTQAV
Structure (SMILES),IC50 (Coagulation factor VII),IC50 (Prothrombin),IC50 (Coagulation factor XI [2]),IC50 (Plasminogen),inhibition (Coagulation factor XI [1])
C[C@]1(O)CC[C@@H]2CCC(C(=O)NCc3ccc(C(=N)N)cc3)N2C1=O (stereo partly specified),> 10 µM,0.27 µM,–,–,20%
CC[C@@H]1CC(C(=O)NCc2ccc(C(=N)N)cc2)N2C(=O)[C@](N)(CC3=CCCCC3)C[C@H](OC)[C@H]12 (stereo partly specified),4.6 µM,0.17 µM,> 133 µM,141 µM,–
C=C(C)C[C@]1(N)C[C@H](OC)[C@@H]2[C@H](CC)CC(C(=O)NCc3ccc(C(=N)N)cc3)N2C1=O (stereo partly specified),1.6 µM,0.38 µM,> 133 µM,37 µM,–
CC[C@@H]1CC(C(=O)NCc2ccc(C(=N)N)cc2)N2C(=O)[C@@](N)(CC3=CCCCC3)C[C@H](OC)[C@H]12 (stereo partly specified),109 µM,–,–,–,–
N=C(N)c1ccc(CNC(=O)C2CC[C@H]3CC[C@@](O)(Cc4ccccc4)C(=O)N23)cc1 (stereo partly specified),1.1 µM,–,–,–,78%

# The next lines start with results.
IC50 (Coagulation factor VII),IC50 (Prothrombin),IC50 (Coagulation factor XI [2]),IC50 (Plasminogen),Structure (SMILES),inhibition (Coagulation factor XI [1])
0.52 µM,0.11 µM,35 µM,71 µM,CO[C@H]1C[C@@](O)(Cc2ccccc2)C(=O)N2C(C(=O)NCc3ccc(C(=N)N)cc3)CC[C@@H]12 (stereo partly specified),–
0.42 µM,–,> 133 µM,11 µM,CC[C@@H]1CC(C(=O)NCc2ccc(C(=N)N)cc2)N2C(=O)[C@](N)(Cc3ccccc3)C[C@H](OC)[C@H]12 (stereo partly specified),–
